Test results from paper PMC2785468, “Androgen Receptor Mutations Associated with Androgen Insensitivity Syndrome: A High Content Analysis Approach Leading to Personalized Medicine” (PLoS ONE, 2009).
Where a chain is given by its changes, count along the chain named.

How the values were obtained:
Type in all cases: cell-based
wild type AR = biological target: T1, wild type AR (Homo sapiens, UniProt P10275); settings: ligands at 0.2–200 nM, 24 h
T1 construct: segments AR 624-919 (wild type or containing mutations F764L, R840C, and P766S); expressed in transfected cells; host or cells: HeLa, transient co-transfection
T1 sequence (P10275 624-919): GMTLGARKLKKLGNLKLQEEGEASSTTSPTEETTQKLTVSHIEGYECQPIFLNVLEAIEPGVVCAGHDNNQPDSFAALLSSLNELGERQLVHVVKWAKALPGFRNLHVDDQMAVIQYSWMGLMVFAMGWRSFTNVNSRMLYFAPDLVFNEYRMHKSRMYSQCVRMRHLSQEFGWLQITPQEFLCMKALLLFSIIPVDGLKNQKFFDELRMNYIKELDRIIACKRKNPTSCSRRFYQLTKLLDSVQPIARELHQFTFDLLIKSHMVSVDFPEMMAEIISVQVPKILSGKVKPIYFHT
T1 sequence (P10275 1-660 partner limits assumed): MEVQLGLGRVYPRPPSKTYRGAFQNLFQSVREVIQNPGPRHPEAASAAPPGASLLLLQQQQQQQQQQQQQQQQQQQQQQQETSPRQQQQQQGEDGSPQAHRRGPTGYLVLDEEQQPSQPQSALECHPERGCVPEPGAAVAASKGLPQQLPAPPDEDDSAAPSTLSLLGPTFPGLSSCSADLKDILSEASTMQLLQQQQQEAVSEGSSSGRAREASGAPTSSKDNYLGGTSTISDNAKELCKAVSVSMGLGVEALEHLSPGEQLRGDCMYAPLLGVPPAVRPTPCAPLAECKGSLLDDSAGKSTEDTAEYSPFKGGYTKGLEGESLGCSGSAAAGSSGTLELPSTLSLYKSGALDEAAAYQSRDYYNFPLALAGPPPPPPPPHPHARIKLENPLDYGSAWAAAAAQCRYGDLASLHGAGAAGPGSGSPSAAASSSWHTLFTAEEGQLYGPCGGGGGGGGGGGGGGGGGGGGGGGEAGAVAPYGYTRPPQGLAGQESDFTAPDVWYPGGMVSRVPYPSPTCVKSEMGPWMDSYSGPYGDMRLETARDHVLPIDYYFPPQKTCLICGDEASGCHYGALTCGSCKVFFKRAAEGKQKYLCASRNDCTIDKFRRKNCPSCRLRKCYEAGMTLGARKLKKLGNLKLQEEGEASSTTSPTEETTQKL
Description: (§1) An interaction between COOH terminal AF2 (activation function 2) and NH2 terminal sequence F^23XXLF^27 is an important step toward the activation of AR [30]. The NC-TDI was measured using the reagents of the CheckMate™/Flexi® Vector Mammalian Two-Hybrid System, Promega (Madison, WI). […] One day before transfection, 1.5×10^6 Hela cells were seeded into a 60 mm dish. […] After 12 hours of transfection, cells were trypsinized and equally seeded into nine wells of a 12 well plate, with one well treated with vehicle and others with various concentration of different ligand. After 24 h of treatment, luciferase activity was assayed with the Promega Dual Glo assay kit, using a luminometer (PerkinElmer). Data represent the average±SD of three independent experiments, are expressed as fold-induction compared with negative control, and represent the units of firefly luciferase corrected for the units of renilla luciferase detected in the same plate.
as §1, with “Figure 3 NH2-COOH-terminal domain” for “An”, “(NC-TDI) assay.” for “between COOH terminal AF2 (activation function 2) and NH2 terminal sequence F^23XXLF^27 is an important step toward the activation of AR [30]. The NC-TDI was measured using the reagents of the CheckMate™/Flexi® Vector Mammalian Two-Hybrid System, Promega (Madison, WI).”, “HeLa” for “Hela”, “c/w” for “compared with”

AR-F764L = biological target: T2, AR-F764L (Homo sapiens, UniProt P10275, F765L)
T2 construct: segments AR 624-919 (wild type or containing mutations F764L, R840C, and P766S); expressed in transfected cells; host or cells: HeLa, transient co-transfection
T2 sequence (P10275 624-919 F765L): T1 sequence (P10275 624-919) with F142L
T2 sequence (P10275 1-660 partner limits assumed): T1 sequence (P10275 1-660 partner limits assumed)
Description: as §1
as §1, with “Figure 3 NH2-COOH-terminal domain” for “An”, “(NC-TDI) assay.” for “between COOH terminal AF2 (activation function 2) and NH2 terminal sequence F^23XXLF^27 is an important step toward the activation of AR [30]. The NC-TDI was measured using the reagents of the CheckMate™/Flexi® Vector Mammalian Two-Hybrid System, Promega (Madison, WI).”, “HeLa” for “Hela”, “c/w” for “compared with”

AR-P766S = biological target: T3, AR-P766S (Homo sapiens, UniProt P10275, P767S); settings: doses of 200 nM, compared with wt AR at 0.2 nM
T3 construct: segments AR 624-919 (wild type or containing mutations F764L, R840C, and P766S); expressed in transfected cells; host or cells: HeLa, transient co-transfection
T3 sequence (P10275 624-919 P767S): T1 sequence (P10275 624-919) with P144S
T3 sequence (P10275 1-660 partner limits assumed): T1 sequence (P10275 1-660 partner limits assumed)
Description: as §1
as §1, with “Figure 3 NH2-COOH-terminal domain” for “An”, “(NC-TDI) assay.” for “between COOH terminal AF2 (activation function 2) and NH2 terminal sequence F^23XXLF^27 is an important step toward the activation of AR [30]. The NC-TDI was measured using the reagents of the CheckMate™/Flexi® Vector Mammalian Two-Hybrid System, Promega (Madison, WI).”, “HeLa” for “Hela”, “c/w” for “compared with”

AR-R840C = biological target: T4, AR-R840C (Homo sapiens, UniProt P10275, R841C)
T4 construct: segments AR 624-919 (wild type or containing mutations F764L, R840C, and P766S); expressed in transfected cells; host or cells: HeLa, transient co-transfection
T4 sequence (P10275 624-919 R841C): T1 sequence (P10275 624-919) with R218C
T4 sequence (P10275 1-660 partner limits assumed): T1 sequence (P10275 1-660 partner limits assumed)
Description: as §1
as §1, with “Figure 3 NH2-COOH-terminal domain” for “An”, “(NC-TDI) assay.” for “between COOH terminal AF2 (activation function 2) and NH2 terminal sequence F^23XXLF^27 is an important step toward the activation of AR [30]. The NC-TDI was measured using the reagents of the CheckMate™/Flexi® Vector Mammalian Two-Hybrid System, Promega (Madison, WI).”, “HeLa” for “Hela”, “c/w” for “compared with”

SMILES: C[C@@H]1CC2=CC(=O)CC[C@@H]2[C@H]2CC[C@@]3(C)[C@@H](CC[C@]3(C)O)[C@@H]21 [Mb, Mibolerone]
- NC-TDI maximal response (luciferase activity) (wild type AR): 7.1 fold increase
- NC-TDI, % of wild type receptor (AR-F764L; at 0.2 nM): 10%
- NC-TDI response (AR-F764L; at 200 nM): 3.1 fold
- NC-TDI rescue (in words) (AR-P766S): rescue the NC-TDI response to the levels observed with wt AR
- concentration at which the NC-TDI response saturated (AR-R840C): 2 nM
